Measured values: publication PMC10622836, “Crystal structure of histone deacetylase 6 complexed with (R)-lipoic acid, an essential cofactor in central carbon metabolism” (The Journal of Biological Chemistry, 2023)

Biological target: T1, HDAC6 (histone deacetylase 6) (Danio rerio, UniProt F8W4B7)
T1 construct: catalytic domain 2
T1 sequence (F8W4B7 440-798 limits assumed): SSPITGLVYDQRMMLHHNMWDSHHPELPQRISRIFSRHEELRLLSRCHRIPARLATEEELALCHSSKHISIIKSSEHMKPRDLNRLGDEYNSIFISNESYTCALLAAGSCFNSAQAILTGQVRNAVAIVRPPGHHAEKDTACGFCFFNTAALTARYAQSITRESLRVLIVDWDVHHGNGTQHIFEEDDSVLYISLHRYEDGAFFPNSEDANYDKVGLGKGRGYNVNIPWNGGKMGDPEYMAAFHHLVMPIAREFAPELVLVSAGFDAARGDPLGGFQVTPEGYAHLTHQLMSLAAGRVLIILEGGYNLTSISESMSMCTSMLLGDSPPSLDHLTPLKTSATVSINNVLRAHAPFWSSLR
Assay: X-ray crystal structure ([…] Å) and ITC
Format: binding

Question: With O=C(O)CCCC[C@@H](S)CCS [(R)-dihydrolipoic acid] as the compound, how does the Kd read?
Answer: 350 nM
